Laboratory results published in patent US20170050957A1, “4-AMINO-6-(HETEROCYCLIC)PICOLINATES AND 6-AMINO-2-(HETEROCYCLIC)PYRIMIDINE-4-CARBOXYLATES AND THEIR USE AS HERBICIDES” (Dow AgroSciences LLC, priority 2013, published 2017).
Read-outs that look alike come from different tables or passages of the source.

Key:
[1] = tested on: Key Grass and Sedge Weeds as well as Grass Crops; experiment: Post-emergent Test II herbicidal activity (Table 16); type: in vivo; conditions: post-emergence, 336 h, 14 d; for pest or weed control at 35 g/ha: 35 g ai/ha; for pest or weed control at 70 g/ha: 70 g ai/ha; for pest or weed control at 140 g/ha: 140 g ai/ha
Method in brief: (§1)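 Greenhouse-grown seedlings at first/second true leaf receive a track spray at 187 L/ha, using a highest rate plus two-fold serial dilutions down to 1/16×. Watering is by subirrigation to avoid wash-off. Percent injury (0-100) is judged by eye at 14 d against untreated plants.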

[2] = tested on: Key Broadleaf Weed and Crop Species; experiment: Post-emergent Test II herbicidal activity (Table 15); type: in vivo; conditions: post-emergence, 336 h, 14 d; for pest or weed control at 35 g/ha: 35 g ai/ha; for pest or weed control at 70 g/ha: 70 g ai/ha; for pest or weed control at 140 g/ha: 140 g ai/ha
Method in brief: as §1

[3] = Cyperus esculentus, yellow nutsedge (Cyperus esculentus), read-out: Visual Growth Reduction (%) 14 Days After Application, CYPES
[4] = Echinochloa crus-galli, barnyardgrass (Echinochloa crus-galli), read-out: Visual Growth Reduction (%) 14 Days After Application, ECHCG
[5] = Oryza sativa, rice (Oryza sativa), read-out: Visual Growth Reduction (%) 14 Days After Application, ORYSA
[6] = Setaria faberi, giant foxtail (Setaria faberi), read-out: Visual Growth Reduction (%) 14 Days After Application, SETFA
[7] = Triticum aestivum, wheat, spring (Triticum aestivum), read-out: Visual Growth Reduction (%) 14 Days After Application, TRZAS
[8] = Zea mays, maize, corn (Zea mays), read-out: Visual Growth Reduction (%) 14 Days After Application, ZEAMX
[9] = Abutilon theophrasti, velvetleaf (Abutilon theophrasti), read-out: Visual Growth Reduction (%) 14 Days After Application, ABUTH
[10] = Amaranthus retroflexus, redroot pigweed (Amaranthus retroflexus), read-out: Visual Growth Reduction (%) 14 Days After Application, AMARE
[11] = Brassica napus, oilseed rape, canola (Brassica napus), read-out: Visual Growth Reduction (%) 14 Days After Application, BRSNN
[12] = Chenopodium album, lambsquarters (Chenopodium album), read-out: Visual Growth Reduction (%) 14 Days After Application, CHEAL
[13] = Euphorbia heterophylla, wild poinsettia (Euphorbia heterophylla), read-out: Visual Growth Reduction (%) 14 Days After Application, EPHHL
[14] = Helianthus annuus, sunflower (Helianthus annuus), read-out: Visual Growth Reduction (%) 14 Days After Application, HELAN

SMILES	pest or weed control at 35 g/ha [1, 3]	pest or weed control at 70 g/ha [1, 3]	pest or weed control at 140 g/ha [1, 3]	pest or weed control at 35 g/ha [1, 4]	pest or weed control at 70 g/ha [1, 4]	pest or weed control at 140 g/ha [1, 4]	pest or weed control at 35 g/ha [1, 5]	pest or weed control at 70 g/ha [1, 5]	pest or weed control at 140 g/ha [1, 5]	pest or weed control at 35 g/ha [1, 6]	pest or weed control at 70 g/ha [1, 6]	pest or weed control at 140 g/ha [1, 6]	pest or weed control at 35 g/ha [1, 7]	pest or weed control at 70 g/ha [1, 7]	pest or weed control at 140 g/ha [1, 7]	pest or weed control at 35 g/ha [1, 8]	pest or weed control at 70 g/ha [1, 8]	pest or weed control at 140 g/ha [1, 8]	pest or weed control at 35 g/ha [2, 9]	pest or weed control at 70 g/ha [2, 9]	other results
COC(=O)c1nc(-c2ccc3cc[nH]c3c2F)c(F)c(N)c1Cl [Compound 1.15, Methyl 4-amino-3-chloro-5-fluoro-6-(7-fluoro-1H-indol-6-yl)picolinate]	0 to 29%	60 to 74%	45 to 59%	75 to 84%	85 to 94%	95 to 100%	0 to 29%	0 to 29%	30 to 44%	60 to 74%	60 to 74%	85 to 94%	45 to 59%	60 to 74%	60 to 74%	0 to 29%	30 to 44%	60 to 74%	95 to 100%	95 to 100%	pest or weed control at 140 g/ha [2, 9]: 95 to 100%; pest or weed control at 35 g/ha [2, 10]: 95 to 100%; pest or weed control at 70 g/ha [2, 10]: 95 to 100%; pest or weed control at 140 g/ha [2, 10]: 95 to 100%; pest or weed control at 35 g/ha [2, 11]: 75 to 84%; pest or weed control at 70 g/ha [2, 11]: 95 to 100%; pest or weed control at 140 g/ha [2, 11]: 95 to 100%; pest or weed control at 35 g/ha [2, 12]: 95 to 100%; pest or weed control at 70 g/ha [2, 12]: 95 to 100%; pest or weed control at 140 g/ha [2, 12]: 95 to 100%; pest or weed control at 35 g/ha [2, 13]: 95 to 100%; pest or weed control at 70 g/ha [2, 13]: 95 to 100%; pest or weed control at 140 g/ha [2, 13]: 95 to 100%; pest or weed control at 35 g/ha [2, 14]: 95 to 100%; pest or weed control at 70 g/ha [2, 14]: 95 to 100%; pest or weed control at 140 g/ha [2, 14]: 95 to 100%
Nc1c(F)c(-c2cc3[nH]ccc3cc2F)nc(C(=O)O)c1Cl [Compound 1.14]	0 to 29%	0 to 29%	0 to 29%	0 to 29%	0 to 29%	0 to 29%	0 to 29%	0 to 29%	0 to 29%	0 to 29%	0 to 29%	0 to 29%	0 to 29%	0 to 29%	0 to 29%	0 to 29%	0 to 29%	0 to 29%	0 to 29%	0 to 29%	pest or weed control at 140 g/ha [2, 9]: 0 to 29%; pest or weed control at 35 g/ha [2, 10]: 75 to 84%; pest or weed control at 70 g/ha [2, 10]: 85 to 94%; pest or weed control at 140 g/ha [2, 10]: 85 to 94%; pest or weed control at 35 g/ha [2, 11]: 45 to 59%; pest or weed control at 70 g/ha [2, 11]: 60 to 74%; pest or weed control at 140 g/ha [2, 11]: 75 to 84%; pest or weed control at 35 g/ha [2, 12]: 60 to 74%; pest or weed control at 70 g/ha [2, 12]: 60 to 74%; pest or weed control at 140 g/ha [2, 12]: 75 to 84%; pest or weed control at 35 g/ha [2, 13]: 0 to 29%; pest or weed control at 70 g/ha [2, 13]: 0 to 29%; pest or weed control at 140 g/ha [2, 13]: 60 to 74%; pest or weed control at 35 g/ha [2, 14]: 60 to 74%; pest or weed control at 70 g/ha [2, 14]: 75 to 84%; pest or weed control at 140 g/ha [2, 14]: 75 to 84%
Nc1c(F)c(-c2ccc(Cl)c3occc23)nc(C(=O)O)c1Cl [Compound 2.18]	0 to 29%	0 to 29%	0 to 29%	0 to 29%	0 to 29%	0 to 29%	0 to 29%	0 to 29%	0 to 29%	0 to 29%	0 to 29%	0 to 29%	0 to 29%	0 to 29%	0 to 29%	0 to 29%	0 to 29%	0 to 29%	0 to 29%	0 to 29%	pest or weed control at 140 g/ha [2, 9]: 0 to 29%; pest or weed control at 35 g/ha [2, 10]: 95 to 100%; pest or weed control at 70 g/ha [2, 10]: 95 to 100%; pest or weed control at 140 g/ha [2, 10]: 95 to 100%; pest or weed control at 35 g/ha [2, 11]: 45 to 59%; pest or weed control at 70 g/ha [2, 11]: 60 to 74%; pest or weed control at 140 g/ha [2, 11]: 60 to 74%; pest or weed control at 35 g/ha [2, 12]: 85 to 94%; pest or weed control at 70 g/ha [2, 12]: 85 to 94%; pest or weed control at 140 g/ha [2, 12]: 85 to 94%; pest or weed control at 35 g/ha [2, 13]: 0 to 29%; pest or weed control at 70 g/ha [2, 13]: 0 to 29%; pest or weed control at 140 g/ha [2, 13]: 0 to 29%; pest or weed control at 35 g/ha [2, 14]: 75 to 84%; pest or weed control at 70 g/ha [2, 14]: 75 to 84%; pest or weed control at 140 g/ha [2, 14]: 85 to 94%
